Results on 9 compounds are retold here after patent publication US9164086B2, “Fluorescent dyes with phosphorylated hydroxymethyl groups and their use in light microscopy and imaging techniques” (Max-Planck-Gesellschaft zur Foerderung der Wissenschaften …, priority 2011, dated 2015).

The nature of data set [1]: UV-visible absorption spectra. The data set is classed as physicochemical. As to conditions: for λabs of the conjugate: conjugate with sheep anti-mouse IG. Here is the method:
(§1) UV-visible absorption spectra were recorded on a Varian Cary 4000 UV-Vis spectrophotometer, and fluorescence spectra on a Varian Cary Eclipse fluorescence spectrophotometer. Reactions were carried out with magnetic stirring in Schlenk flasks equipped with septa or reflux condensers with bubble-counters under argon using a standard manifold with vacuum and argon lines. The MICROTOF spectrometer equipped with ESI ion source Apollo and direct injector with LC autosampler Agilent RR 1200 was used for obtaining mass spectra and high resolution mass-spectra (ESI-HRMS). ESI-HRMS were obtained also on APEX IV spectrometer (Bruker). ESI spectra were also obtained on a Varian 500MS spectrometer in some cases. HPLC system (Knauer): Smartline pump 1000 (2×), UV detector 2500, column thermostat 4000 (25° C.), mixing chamber, injection valve with 20 and 100 μL loop for analytical and preparative columns, respectively; 6-port-3-channel switching valve; analytical column: Eurospher-100 C18, 5 μm, 250×4 mm, 1.2 mL/min; preparative column: Eurospher-100-5 C18, 5 μm, 250×8 mm, 4 mL/min; solvent A: water+0.1% v/v trifluoroacetic acid (TFA); solvent B: CH3CN+0.1% v/v TFA; detection at 636 nm (if not stated otherwise). Normal phase analytical TLC was performed on MERCK ready-to-use plates with silica gel 60 (F254).

Data set [2] can be described thus: Fluorescence spectra, quantum yield and excited state lifetime. The data set is classed as physicochemical. The following applies: for λem of the conjugate / Φfl. of the conjugate: conjugate with sheep anti-mouse IG; for Φfl. of the conjugate / Φfl.: as fraction; for fluorescence quantum yield of the antibody conjugates obtained from the dye: after attaching to antibodies. Here is the method: as §1

A further data set in a line: Solubility (qualitative). The class given is physicochemical. As to conditions: for solubility in other solvents and buffers: solvents named in the value.
The conditions of data set [3]: commercial dyes, solvent not stated; cited from earlier work.

Molecules are shown by their SMILES. “Also recorded” adds a separate entry of the source.

Consider `CC1(C)C=C(COP(=O)(O)O)c2cc3cc(-c4ccncc4)c(=O)oc3cc2N1CCCC(=O)ON1C(=O)CCC1=O` [Compound 12], for which the “λabs of the conjugate” value in data set [1] (PBS buffer at pH 7.4) is reported as 439 nm. For the same compound, in data set [2] (PBS buffer at pH 7.4), the “λem of the conjugate” value came to 513 nm and the “Φfl. of the conjugate” value is on record as 0.30.
For `CN(CCCC(=O)O)C(=O)c1c(F)c(F)c(F)c(F)c1C1=c2cc3c4c(c2Oc2c1cc1c5c2CCCN5C(C)(C)C=C1COP(=O)(O)O)CCC[N+]=4C(C)(C)C=C3COP(=O)([O-])O` [Compound 26-H], in “Solubility (qualitative)”, the “solubility in other solvents and buffers” value was “well-soluble in aq. NaHCO3, alkali, Et3N, and PBS buffers, MeOH; also recorded: insoluble in acetone, CH3CN, chloroform”. In addition, in data set [1] (H2O), the “ε · 10^−4” value is reported as 7.5 M^−1 cm^−1 and the “λmax (abs.)” value turned out to be 635 nm. Moreover, in data set [2] (H2O), the “Φfl (fluorescence quantum yield)” value came to 83% and the “λmax (fl.)” value was determined as 655 nm. Besides, the “τ1 (lifetime of the excited state)” value in data set [2] (H2O, monoexponential fit) was found to be 3.0 ns. Also, the “fluorescence quantum yield of the antibody conjugates obtained from the dye” value (from here on “fluorescence quantum yield … from the dye”) in data set [2] came to 51%.
Regarding `CC1(C)C=C(COP(=O)(O)O)c2cc3cc(-c4ccncc4)c(=O)oc3cc2N1CCCC(=O)O` [Compound 11], in data set [1] (PBS (7.4)), the “ε · 10^−4” value is given as 2.27 M^−1 cm^−1 and the “λmax (abs.)” value was found to be 436 nm. In data set [1] (PBS buffer at pH 7.4), this compound showed a ε of 22700 M⁻¹ cm⁻¹. In data set [2], the Stokes shift came out at 79 nm, the “fluorescence quantum yields (in words)” value was “high” and the “fluorescence quantum yield … from the dye” value was 30%. Moreover, in data set [2] (PBS (7.4)), the “Φfl (fluorescence quantum yield)” value came to 68%, the “λmax (fl.)” value is 515 nm and the “τ1 (lifetime of the excited state)” value came to 3.3 ns. For the same compound, in data set [2] (PBS buffer at pH 7.4), the Φfl. worked out at 0.68.
For `CC(C)(C)OC(=O)CCCN1c2cc3oc(=O)c(-c4ccncc4)cc3cc2C(COP(=O)(OC(C)(C)C)OC(C)(C)C)=CC1(C)C` [Compound 10], the “Remarks: solubility in water” value in the data set “Solubility (qualitative)” (water) was “Low solubility in water”. For the same compound, in data set [1] (MeOH), the ε was determined as 30700 M⁻¹ cm⁻¹, the “ε · 10^−4” value was determined as 3.07 M^−1 cm^−1 and the “λmax (abs.)” value is given as 430 nm. For the same compound, the “fluorescence quantum yields (in words)” value in data set [2] is reported as “high”. In addition, in data set [2] (MeOH), the “Φfl (fluorescence quantum yield)” value amounted to 82%, the “λmax (fl.)” value is 501 nm and the Φfl. was found to be 0.82.
With `CC1(C)C=C(CS(=O)(=O)O)c2cc3cc(-c4ccncc4)c(=O)oc3cc2N1CCCC(=O)ON1C(=O)CCC1=O` [Compound 20-NHS, reference compound], the “λabs of the conjugate” value in data set [1] (PBS buffer at pH 7.4) amounted to 437 nm. In data set [2] (PBS buffer at pH 7.4), the “λem of the conjugate” value is recorded as 512 nm and the “Φfl. of the conjugate” value is on record as 0.18.
For the compound `CC1(C)C=C(CS(=O)(=O)O)c2cc3cc(-c4ccncc4)c(=O)oc3cc2N1CCCC(=O)O` [Compound 20-H, reference compound], in data set [1] (MeOH), the ε stood at 25900 M⁻¹ cm⁻¹, the “ε · 10^−4” value worked out at 2.59 M^−1 cm^−1 and the “λmax (abs.)” value came to 436 nm. In addition, in data set [1] (PBS (7.4)), the “ε · 10^−4” value is listed as 3.12 M^−1 cm^−1 and the “λmax (abs.)” value stood at 436 nm. In data set [1] (PBS buffer at pH 7.4), this compound yielded a ε of 31200 M⁻¹ cm⁻¹. Further, in data set [2], the “fluorescence quantum yields (in words)” value is listed as “high” and the “fluorescence quantum yield … from the dye” value was found to be 18%. Also, in data set [2] (MeOH), the “Φfl (fluorescence quantum yield)” value was found to be 56%, the “λmax (fl.)” value is listed as 510 nm and the Φfl. is given as 0.56. Also, in data set [2] (PBS (7.4)), the “Φfl (fluorescence quantum yield)” value worked out at 57% and the “λmax (fl.)” value turned out to be 515 nm. In data set [2] (PBS buffer at pH 7.4), this compound yielded a Φfl. of 0.57.
With `CCOC(=O)CCCN1c2cc3oc(=O)c(-c4ccncc4)cc3cc2C(C)=CC1(C)C` [Compound 18, reference compound], the “Remarks: solubility in water” value in “Solubility (qualitative)” (water) is given as “Low solubility in water”. Further, in data set [1] (MeOH), the ε was determined as 33400 M⁻¹ cm⁻¹, the “ε · 10^−4” value worked out at 3.34 M^−1 cm^−1 and the “λmax (abs.)” value was 437 nm. The “fluorescence quantum yields (in words)” value in data set [2] is “high”. In addition, in data set [2] (MeOH), the “Φfl (fluorescence quantum yield)” value came to 77%, the “λmax (fl.)” value is reported as 507 nm and the Φfl. is listed as 0.77.
Take `CN(CCCC(=O)O)C(=O)c1c(F)c(F)c(F)c(F)c1C1=c2cc3c4c(c2Oc2c1cc1c5c2CCCN5C(C)(C)C=C1CO)CCC[N+]=4C(C)(C)C=C3CO` [Compound 24-H]: in “Solubility (qualitative)” (aqueous buffers), the “solubility in aqueous buffers” value is “low solubility in aqueous buffers”. Also, the “solubility in other solvents and buffers” value in “Solubility (qualitative)” is “well-soluble in MeOH, CH3CN, and chlorinated solvents”. Further, in “Solubility (qualitative)” (water), the “Remarks: solubility in water” value was “Limited solubility in water” and the “solubility in water” value is recorded as “slightly soluble in water”. For the same compound, in data set [1] (H2O), the “ε · 10^−4” value is reported as 8.6 M^−1 cm^−1 and the “λmax (abs.)” value came to 632 nm. In data set [2] (H2O), the “Φfl (fluorescence quantum yield)” value was 85% and the “λmax (fl.)” value is 654 nm. In data set [2], the “fluorescence quantum yield … from the dye” value turned out to be 66%.
As for `CC1(C)C=C(CS(=O)(=O)O)c2cc3c(C(F)(F)F)cc(=O)oc3cc2N1CCCCCC(=O)ON1C(=O)CCC1=O.CCN(CC)CC` [Alexa Fluor™ 430], in data set [3], the absorption maximum is reported as 434 nm and the emission maximum is recorded as 539 nm.
